Consider 9 compounds from ChEMBL document CHEMBL4321873, “Optimization of Orally Bioavailable PI3Kδ Inhibitors and Identification of Vps34 as a Key Selectivity Target” (J Med Chem, 2020).

A short description of series [1]: AUC (infinity) in Wistar Han rat at 1 mg/kg, po by LC-MS/MS analysis. In kind it is ADME, organism-based. The arrangement: dose 1 mg/kg, time infinity, route oral. As to conditions: in vivo.
Series [2] in a line: Intrinsic clearance in rat hepatocytes at 0.5 uM measured after 10 mins by LC-MS/MS analysis. In kind it is ADME, cell-based, Hepatocyte.
The nature of series [3]: Intrinsic clearance in minipig hepatocytes at 0.5 uM measured after 10 mins by LC-MS/MS analysis. It counts as ADME, cell-based, Sus scrofa domesticus, Hepatocyte. As to conditions: pig.
The nature of series [4]: Intrinsic clearance in human hepatocytes at 0.5 uM measured after 10 mins by LC-MS/MS analysis. It counts as ADME, cell-based, Hepatocyte.
The nature of series [5]: Half life in Wistar Han rat at 1 mg/kg, iv by LC-MS/MS analysis. It counts as ADME, organism-based. Particulars: in vivo.
A short description of series [6]: Clearance in Wistar Han rat at 1 mg/kg, iv by LC-MS/MS analysis. In kind it is ADME, organism-based. Particulars: in vivo.
Series [7] is described as follows: Volume of distribution at steady state in Wistar Han rat at 1 mg/kg, iv or 1 mg/kg, po by LC-MS/MS analysis. It counts as ADME, organism-based. As to conditions: in vivo, read-out: Vdss.
Series [8] in a line: Kinetic solubility of the compound in pH 7.4 phosphate buffered saline measured after 1 hr by CLND method. It counts as physicochemical. Particulars: read-out: Kinetic_solubility.
The nature of series [9]: Clearance in Wistar Han rat at 1 mg/kg, iv by LC-MS/MS analysis relative to hepatic blood flow. In kind it is ADME, organism-based. Particulars: in vivo.
Series [10] in a line: Permeability of the compound in pH 7.05 phosphate buffer measured after 3 hrs by artificial membrane permeability assay based LC-MS analysis. In kind it is ADME. Particulars: PAMPA, read-out: permeability. In general terms: The PAMPA barrier holds no transporters, so it reflects passive diffusion.
Series [11] can be described thus: Oral bioavailability in Wistar Han rat at 1 mg/kg by LC-MS/MS analysis. In kind it is ADME, organism-based. As to conditions: in vivo.
Series [12] is described as follows: AUC (0 to 24 hrs) in Wistar Han rat at 10 mg/kg, po administered twice daily for 7 days by LC-MS/MS analysis. It counts as ADME, organism-based. Set-up: dose 10 mg/kg, time < 24 hr, route oral. As to conditions: in vivo.
Series [13] can be described thus: AUC (0 to 24 hrs) in Wistar Han rat at 30 mg/kg, po administered twice daily for 7 days by LC-MS/MS analysis. It counts as ADME, organism-based. The arrangement: dose 30 mg/kg, time < 24 hr, route oral. Particulars: in vivo.
Series [14] in a line: AUC (0 to 24 hrs) in Wistar Han rat at 100 mg/kg, po administered twice daily for 7 days by LC-MS/MS analysis. It counts as ADME, organism-based. Set-up: dose 100 mg/kg, time < 24 hr, route oral. As to conditions: in vivo.
Series [15] can be described thus: Time at which plasma concentration stays at 10 times Kd(app) for binding affinity to PI3Kdelta in human HL60 cell extract in Wistar Han rat at 10 to 100 mg/kg, po administered twice daily for 7 days. In kind it is ADME, organism-based. As to conditions: in vivo, 168 h.
Series [16] in a line: Time at which plasma concentration stays at 10 times Kd(app) for binding affinity to PI3Kdelta in human HL60 cell extract in Wistar Han rat at 30 to 300 mg/kg, po administered once daily for 7 days. It counts as ADME, organism-based. Particulars: in vivo, 168 h.
Series [17] is described as follows: AUC (0 to 24 hrs) in Wistar Han rat at 30 mg/kg, po administered once daily for 7 days by LC-MS/MS analysis. It counts as ADME, organism-based. Set-up: dose 30 mg/kg, time < 24 hr, route oral. Particulars: in vivo.
Series [18] can be described thus: AUC (0 to 24 hrs) in Wistar Han rat at 100 mg/kg, po administered once daily for 7 days by LC-MS/MS analysis. It counts as ADME, organism-based. The arrangement: time < 24 hr, dose 100 mg/kg, route oral. Particulars: in vivo.
Series [19] can be described thus: AUC (0 to 4 hrs) in Wistar Han rat at 300 mg/kg, po administered once daily for 7 days by LC-MS/MS analysis. The arrangement: dose 300 mg/kg, time < 4 hr, route oral. It counts as ADME, organism-based. Particulars: in vivo.
A short description of series [20]: Time at which plasma concentration stays at 10 times Kd(app) for binding affinity to VPS34 in human HL60 cell extract in Wistar Han rat at 100 mg/kg, po administered once daily for 7 days. It counts as ADME, organism-based. Particulars: in vivo, 168 h.

A word on the AUC(0-inf): it is the area under the concentration-time curve extrapolated to infinity. For orientation: half-life means how long it takes for the measured level to halve. Low values mean fast loss, high ones slow loss. A word on the clearance: it is the rate of elimination divided by the concentration. Low readings indicate inefficient removal, high ones efficient removal. The bioavailability is dose-corrected exposure relative to a reference, in per cent. A lower bioavailability goes with poor availability. As usually defined, the AUC is the area under the concentration-time curve, a measure of exposure.

The structures appear in SMILES notation. Values after ≈ are worked out from the molar mass of the structure shown.

Consider `COc1ncc(-c2cc3c(c(NC(=O)CN4CCOCC4)c2)COC3)cc1NS(C)(=O)=O`, for which the AUC(0-inf) in [1] stood at 673 ng·h/mL.
As to `COCCS(=O)(=O)Nc1cc(-c2cc3c(c(OCCN4CCC(C(C)(C)O)CC4)c2)CCOC3)cnc1OC`, the “Intrinsic clearance (CLint)” value in series [2] was less than 0.9 mL/min/g. In [3], the CLH was less than 0.9 mL/min/g. This compound also gave an intrinsic clearance in series [4] of less than 0.9 mL/min/g. The half-life in [5] is 2.7 h. Further, the clearance in series [6] was determined as 41 mL/min/kg. Besides, in series [7], the Vd is 6.9 L/kg. For the same compound, the solubility kinetic at 1 h in series [8] is no less than 184 µg/mL.
Regarding `COc1ncc(-c2cc(OCCN3CCC(C(C)(C)O)CC3)c3c(c2F)COC3)cc1NS(C)(=O)=O`, in series [2], the “Intrinsic clearance (CLint)” value is 4.5 mL/min/g. The same compound returned an intrinsic clearance in series [4] of less than 0.9 mL/min/g.
Regarding `COCCS(=O)(=O)Nc1cc(-c2cc3c(c(OCCN4CCC(C(C)(C)O)CC4)c2)COC3)cnc1OC`, the “Intrinsic clearance (CLint)” value in series [2] was determined as 1.6 mL/min/g. In addition, in series [4], the intrinsic clearance is less than 0.9 mL/min/g. The compound also came in with a CL in [9] of 28%. Besides, the Papp at 3 h in series [10] is less than 0.3 ×10⁻⁶ cm/s.
In the case of `COc1ncc(-c2cc3c(c(OCCN4CCC(C(C)(C)O)CC4)c2)COC3)cc1NS(=O)(=O)CC#N`, the Papp at 3 h in series [10] is less than 0.3 ×10⁻⁶ cm/s.
On to `COc1ncc(-c2cc(OCCN3CCC(C(C)(C)O)CC3)c3c(c2)[C@@H](C)OC3)cc1NS(C)(=O)=O`, for which the “Intrinsic clearance (CLint)” value in series [2] worked out at 9.7 mL/min/g. Besides, the intrinsic clearance in [4] was less than 0.9 mL/min/g.
With `COCCS(=O)(=O)Nc1cc(-c2cc3c(c(OC[C@H]4CN(C5COC5)CCO4)c2)COC3)cnc1OC`, the “Intrinsic clearance (CLint)” value in [2] is 1.2 mL/min/g. In series [3], this compound came in with a CLH of 0.9 mL/min/g. Also, the intrinsic clearance in series [4] is less than 0.3 mL/min/g. This compound also registered an AUC(0-inf) in series [1] of 829 ng·h/mL. This compound gave a half-life in [5] of 3.2 h. The compound also came in with a clearance in series [6] of 22 mL/min/kg. For the same compound, in series [11], the bioavailability was 84%. The Vd in series [7] was found to be 2 L/kg. Moreover, the solubility kinetic at 1 h in series [8] was no less than 270 µg/mL. In addition, in series [9], the CL was 28%. Besides, the AUC at 24 h in [12] turned out to be 12600 ng·h/mL; in [13], 37400 ng·h/mL; in series [14], 114000 ng·h/mL. The Time in series [15] and in series [16] was 24 h throughout.
In the case of `COc1ncc(-c2cc3c(c(OCCN4CCC(C(C)(C)O)CC4)c2)CCOC3)cc1NS(C)(=O)=O`, in [6], the clearance came out at 109 mL/min/kg.
As to `COc1ncc(-c2cc3c(c(OCCN4CCC(C(C)(C)O)CC4)c2)COC3)cc1NS(C)(=O)=O`, the “Intrinsic clearance (CLint)” value in series [2] stood at 2.5 mL/min/g. The compound further showed a CLH in series [3] of less than 0.9 mL/min/g. The compound also showed an intrinsic clearance in series [4] of less than 0.9 mL/min/g. Also, in series [1], the area under the curve AUC(0-inf) worked out at 148 ng·h/mL. Moreover, the half-life in series [5] was 2.1 h. The compound also showed a clearance in series [6] of 48 mL/min/kg. Moreover, the bioavailability in series [11] was 32%. In series [7], the Vd came to 5.9 L/kg. Besides, the solubility kinetic at 1 h in series [8] is 197 µg/mL (≈ 390 µM). The compound also registered a CL in series [9] of 62%. For the same compound, the AUC at 24 h stood at 5000 ng·h/mL in series [17] and 26300 ng·h/mL in series [18]. In addition, the exposure (AUC) at 4 h in series [19] was 27500 ng·h/mL. The Time in [15], in series [16] and in [20] was 24 h in each case.
